Test results: patent publication EP2147919A1, “Heterocyclic substituted amides, method for their manufacture and their use as herbicides” (Bayer CropScience Aktiengesellschaft, priority 2008, dated 2010)

What was measured:
STEME [1] = assay: Herbicidal action pre-emergence (greenhouse pot test, visual rating); format: in vivo, Stellaria media; settings: Vorauflauf, 1280 g/ha, visual rating after 3 weeks vs untreated controls
Source text: (§1) Samen von mono- bzw. dikotylen Unkraut- bzw. Kulturpflanzen werden in Holzfasertöpfen in sandiger Lehmerde ausgelegt und mit Erde abgedeckt. Die in Form von benetzbaren Pulvern (WP) oder als Emulsionskonzentrate (EC) formulierten erfindungsgemäßen Verbindungen werden dann als wäßrige Suspension bzw. Emulsion mit einer Wasseraufwandmenge von umgerechnet 600 bis 800 l/ha unter Zusatz von 0,2% Netzmittel auf die Oberfläche der Abdeckerde appliziert.
(§2) Nach der Behandlung werden die Töpfe im Gewächshaus aufgestellt und unter guten Wachstumsbedingungen für die Testpflanzen gehalten. Die visuelle Bonitur der Schäden an den Versuchspflanzen erfolgt nach einer Versuchszeit von 3 Wochen im Vergleich zu unbehandelten Kontrollen (herbizide Wirkung in Prozent (%): 100% Wirkung = Pflanzen sind abgestorben, 0 % Wirkung = wie Kontrollpflanzen).

ABUTH [2] = assay: as above; format: in vivo, Abutilon theophrasti; settings: Vorauflauf, 1280 g/ha, visual rating after 3 weeks vs untreated controls
Source text: as §1, §2

VIOTR [3] = assay: Herbicidal action post-emergence (greenhouse pot test, visual rating); format: in vivo, Viola tricolor; settings: Nachauflauf, 1280 g/ha, visual rating after ca. 3 weeks vs untreated controls
Source text: (§3) Samen von mono- bzw. dikotylen Unkraut- bzw. Kulturpflanzen werden in Holzfasertöpfen in sandigem Lehmboden ausgelegt, mit Erde abgedeckt und im Gewächshaus unter guten Wachstumsbedingungen angezogen. 2 bis 3 Wochen nach der Aussaat werden die Versuchspflanzen im Einblattstadium behandelt. Die in Form von benetzbaren Pulvern (WP) oder als Emulsionskonzentrate (EC) formulierten erfindungsgemäßen Verbindungen werden dann als wäßrige Suspension bzw. Emulsion mit einer Wasseraufwandmenge von umgerechnet 600 bis 800 l/ha unter Zusatz von 0,2% Netzmittel auf die grünen Pflanzenteile gesprüht. Nach ca. 3 Wochen Standzeit der Versuchspflanzen im Gewächshaus unter optimalen Wachstumsbedingungen wird die Wirkung der Präparate visuell im Vergleich zu unbehandelten Kontrollen bonitiert (herbizide Wirkung in Prozent (%): 100% Wirkung = Pflanzen sind abgestorben, 0 % Wirkung = wie Kontrollpflanzen).

ALOMY = assay: Herbicidal action pre-emergence (greenhouse pot test, visual rating); format: in vivo, Alopecurus myosuroides; settings: Vorauflauf, 1280 g/ha, visual rating after 3 weeks vs untreated controls
Source text: as §1, §2

VERPE [4] = assay: as above; format: in vivo, Veronica persica; settings: Vorauflauf, 1280 g/ha, visual rating after 3 weeks vs untreated controls
Source text: as §1, §2

MATIN [5] = assay: Herbicidal action post-emergence (greenhouse pot test, visual rating); format: in vivo, Matricaria inodora; settings: Nachauflauf, 1280 g/ha, visual rating after ca. 3 weeks vs untreated controls
Source text: as §3

VERPE [6] = assay: as above; format: in vivo, Veronica persica; settings: Nachauflauf, 1280 g/ha, visual rating after ca. 3 weeks vs untreated controls
Source text: as §3

PHBPU = assay: as above; format: in vivo, Pharbitis purpurea; settings: Nachauflauf, 1280 g/ha, visual rating after ca. 3 weeks vs untreated controls
Source text: as §3

ABUTH [7] = assay: as above; format: in vivo, Abutilon theophrasti; settings: Nachauflauf, 1280 g/ha, visual rating after ca. 3 weeks vs untreated controls
Source text: as §3

AMARE [8] = assay: as above; format: in vivo, Amaranthus retroflexus; settings: Nachauflauf, 1280 g/ha, visual rating after ca. 3 weeks vs untreated controls
Source text: as §3

AMARE [9] = assay: Herbicidal action pre-emergence (greenhouse pot test, visual rating); format: in vivo, Amaranthus retroflexus; settings: Vorauflauf, 1280 g/ha, visual rating after 3 weeks vs untreated controls
Source text: as §1, §2

STEME [10] = assay: Herbicidal action post-emergence (greenhouse pot test, visual rating); format: in vivo, Stellaria media; settings: Nachauflauf, 1280 g/ha, visual rating after ca. 3 weeks vs untreated controls
Source text: as §3

Log P = format: physicochemical
MATIN [11] = assay: Herbicidal action pre-emergence (greenhouse pot test, visual rating); format: in vivo, Matricaria inodora; settings: Vorauflauf, 1280 g/ha, visual rating after 3 weeks vs untreated controls
Source text: as §1, §2

Schadpflanzen [12] = assay: Herbicidal action post-emergence, summary over the weed spectrum; format: in vivo; settings: Nachauflaufverfahren, Aufwandmenge von 1.28 kg und weniger Aktivsubstanz pro Hektar
Source text: as §3

Schadpflanzen [13] = assay: Herbicidal action pre-emergence, summary over the weed spectrum; format: in vivo; settings: Vorauflaufverfahren, Aufwandmenge von 1.28 kg und weniger Aktivsubstanz pro Hektar
Source text: as §1, §2

VIOTR [14] = assay: Herbicidal action pre-emergence (greenhouse pot test, visual rating); format: in vivo, Viola tricolor; settings: Vorauflauf, 1280 g/ha, visual rating after 3 weeks vs untreated controls
Source text: as §1, §2

AVEFA = assay: as above; format: in vivo, Avena fatua; settings: Vorauflauf, 1280 g/ha, visual rating after 3 weeks vs untreated controls
Source text: as §1, §2

SETVI = assay: as above; format: in vivo, Setaria viridis; settings: Vorauflauf, 1280 g/ha, visual rating after 3 weeks vs untreated controls
Source text: as §1, §2

POLCO = assay: as above; format: in vivo, Polygonum convolvolus; settings: Vorauflauf, 1280 g/ha, visual rating after 3 weeks vs untreated controls
Source text: as §1, §2

LOLMU = assay: as above; format: in vivo, Lolium multiflorum; settings: Vorauflauf, 1280 g/ha, visual rating after 3 weeks vs untreated controls
Source text: as §1, §2

ECHCG = assay: as above; format: in vivo, Echinochloa crus-galli; settings: Vorauflauf, 1280 g/ha, visual rating after 3 weeks vs untreated controls
Source text: as §1, §2

SMILES	herbizide Wirkung STEME (STEME [1]) [%]	herbizide Wirkung ABUTH (ABUTH [2]) [%]	herbizide Wirkung ALOMY (ALOMY) [%]	herbizide Wirkung VERPE (VERPE [4]) [%]	herbizide Wirkung AMARE (AMARE [9]) [%]	herbizide Wirkung MATIN (MATIN [11]) [%]	herbizide Wirkung gegen Schadpflanzen (Schadpflanzen [12])	herbizide Wirkung gegen Schadpflanzen (Schadpflanzen [13])	herbizide Wirkung VIOTR (VIOTR [14]) [%]	herbizide Wirkung SETVI (SETVI) [%]	herbizide Wirkung POLCO (POLCO) [%]	herbizide Wirkung LOLMU (LOLMU) [%]	herbizide Wirkung ECHCG (ECHCG) [%]	further results
Cc1cc(OC(C)C)c(C(=O)NC(c2ccc(F)c(F)c2)c2ccon2)c(Cl)n1 (racemic) [Beispiel 174, 2-Chlor-N-[(3,4-difluorphenyl)(isoxazol-3-yl)methyl]-4-isopropoxy-6-methylnicotinamid]	100	100	60	100	100	80	–	–	–	–	–	–	–	herbizide Wirkung VIOTR (VIOTR [3]): 80%; herbizide Wirkung MATIN (MATIN [5]): 90%; herbizide Wirkung VERPE (VERPE [6]): 100%; herbizide Wirkung PHBPU (PHBPU): 80%; herbizide Wirkung ABUTH (ABUTH [7]): 100%; herbizide Wirkung AMARE (AMARE [8]): 100%; herbizide Wirkung STEME (STEME [10]): 100%; logP (Log P): 2.26
CCCOc1cc(C)nc(Cl)c1C(=O)NC(c1ccon1)c1ccc(OC)cc1F (centres unmarked) [Beispiel 2, 2-Chlor-N-[(2-fluor-4-methoxyphenyl)(isoxazol-3-yl)methyl]-6-methyl-4-n-propoxynicotinamid]	–	–	–	–	–	–	sehr gute herbizide Wirkung	–	–	–	–	–	–	–
CCCOc1cc(C)nc(Br)c1C(=O)NC(c1ccc(F)c(F)c1)c1ccon1 (centres unmarked) [Beispiel 161]	100	100	90	100	100	100	–	sehr gute herbizide Wirkung	100	100	100	90	80	herbizide Wirkung AVEFA (AVEFA): 80%
CCCOc1cc(C)nc(Br)c1C(=O)NC(c1cccc(Cl)c1)c1ccon1 (centres unmarked) [Beispiel 162]	100	100	90	100	100	100	sehr gute herbizide Wirkung	sehr gute herbizide Wirkung	100	80	100	80	80	–
